Reference: PMC9081605, “A High-Throughput Toxicity Screen of 42 Per- and Polyfluoroalkyl Substances (PFAS) and Functional Assessment of Migration and Gene Expression in Human Placental Trophoblast Cells” (Frontiers in Toxicology, 2022)

Tested on: JEG-3 cells
Assay: Scratch wound migration assay
Format: cell-based, human
Conditions: for Migration, percent of wound closure: 100 µM, after 72 h; for cellular migration relative to vehicle control: after 24 h of exposure, 25-200 µM; for significant effects on migration observed at 24 h, followed to 72 h: any concentration, by 72 h
Procedure: JEG-3 cells were cultured as described in Cell Culture section, and six PFAS were evaluated across an 8-point linear concentration curve ranging from 25 to 200 µM (25 µM steps): PFOA (335-67-1), GenX (62037-80-3), PFOS (1763-23-1), perfluorooctanesulfonamide (PFOSA, 754-91-6), perfluorooctanamide (PFOAA, 423-54-1), and perfluorononanoic acid (PFNA, 375-95-1). The vehicle control group consisted of 98% media + 2% methanol to match the concentration of methanol in the media at the highest PFAS concentration tested (200 µM). Cadmium chloride (25 µM) was used as a positive control for cytotoxicity ([Brooks and Fry, 2017]). Chemical exposure plate maps were designed so that all experimental conditions were tested in at least technical duplicates per plate. The outer edges of each plate received media alone and were excluded from all analyses to avoid edge effects. JEG-3 cells were counted and seeded at a density of 80,000 cells per well in black-walled, clear bottom 96-well plates (Corning #CLS3603, Millipore Sigma) and allowed to adhere and grow for 36 h. After approximately 36 h, 96-well plates were imaged on the IncuCyte Zoom to obtain cellular confluence measurements prior to chemical dosing (0 h). Media was then removed from wells and replaced with fresh serum-free media containing chemical treatments (serum-free exposure media) using the Viaflo liquid handling device. After 1 h of treatment with serum-free exposure media, plates were again imaged for cellular confluence using the IncuCyte Zoom. Serum-free exposure media was then removed from wells and wells were scratched by dragging a 200 µl pipette tip from top to bottom of each well, changing tips every well. Fresh media containing serum and chemical treatments (exposure media) was added to plates using a liquid handling device and allowed to grow for 72 h, with imaging via the IncuCyte Zoom every 6 h.
Plate well bottom images were evaluated using automated cell masking as described in Proliferation section. Cell migration was calculated as the change in cellular confluence from the baseline measurement obtained immediately post-scratch to each subsequent time point (24, 48, and 72 h, post-scratch).
Raw migration assay data exported from IncuCyte software were analyzed using GraphPad Prism 8.0 (GraphPad Software, San Diego, CA)). Prior to analysis, a minimum starting confluence value of 70% was set to ensure comparisons between samples were not skewed. Images with a starting confluence of less than 70% were excluded from analysis. Statistical analysis was performed using multiple unpaired t-tests to compare treated groups to the vehicle control followed by post hoc correction for multiple tests using the Bonferroni-Dunn method. Concentration-response analysis to determine migration assay EC50s was attempted but was not able to be modeled due to the non-linear nature of the concentration-response relationship for this endpoint.

Row | SMILES | Migration, percent of wound closure | cellular migration relative to vehicle control | significant effects on migration observed at 24 h, followed to 72 h
1 | N.O=C(O)C(F)(OC(F)(F)C(F)(F)C(F)(F)F)C(F)(F)F (stereo not shown) [Ammonium perfluoro-2-methyl-3-oxahexanoate] | 79% | significantly reduced | 
2 | O=C(O)C(F)(F)C(F)(F)C(F)(F)C(F)(F)C(F)(F)C(F)(F)C(F)(F)C(F)(F)F [Perfluorononanoic acid] |  | significantly reduced | attenuated
3 | NS(=O)(=O)C(F)(F)C(F)(F)C(F)(F)C(F)(F)C(F)(F)C(F)(F)C(F)(F)C(F)(F)F [Perfluorooctanesulfonamide] |  | significantly reduced | 
4 | O=S(=O)(O)C(F)(F)C(F)(F)C(F)(F)C(F)(F)C(F)(F)C(F)(F)C(F)(F)C(F)(F)F [Perfluorooctanesulfonic acid] | 57% | significantly reduced | 
5 | O=C(O)C(F)(F)C(F)(F)C(F)(F)C(F)(F)C(F)(F)C(F)(F)C(F)(F)F [Perfluorooctanoic acid] | 72% | significantly reduced | attenuated
